Assay [1] relates to detrusor muscle. The experiment in a line: Test Example 2: relaxation of guinea pig bladder strips, rhythmical contraction induced by 15 mM KCl. The settings on record: Cavia porcellus, concentration decreasing detrusor contraction by 50%. In kind it is cell-based, guinea pig (male albino Hartley). From the text: (§1) The activity of Compound (I) as a smooth muscle relaxant which is useful as a therapeutic agent for urinary incontinence can be observed, for example, using the following tests. In the following Test Examples 1 and 2, "IC50 " means the concentration of a test compound which induces the decrease in the contraction of detrusor muscle by 50%.
(§2) Male albino Hartley guinea pigs (350-550 g) were used as test animals. Each animal was exsanguinated to death under pentobarbital sodium anesthesia. The lower abdominal cavity was opened and its bladder was positioned. The connective tissue and the fat tissue around the bladder were removed, and the bladder was cleaned. After two pelvic nerves on the surface of the abdominal side of the bladder were dissected, the bladder was taken out on the entrance of ureter. The bladder was washed with a Krebs-Henseleit buffer [composition (mM): NaCl 118, KCl 4.7, MgSO4 1.2, KH2 PO4 1.2, CaCl2 2.5, NaHCO3 25, and D-glucose 11.1], and then put on a gauze patch soaked in the buffer in a Petri dish. The dome and the trigone of the bladder were dissected and discarded. The back of the bladder was cut vertically in the middle with scissors, and the bladder was put flat on the gauze patch. The dome tip and the side of the trigone of the bladder were dissected and discarded, and the mucosa of the bladder was removed. The back of the bladder was cut vertically to get 6 strips which are ca. 2.0 mm wide and ca. 10 mm long.
(§3) One end of each strip was fixed on a plastic supporter rod, and the other end was fixed on a clip connected to a suture thread. The supporter was fixed in 20 ml of an organ bath and the suture thread connected to the clip was fixed on a force-displacement transducer (NIHON KODEN TB-611T). The tissue was suspended in a Krebs-Henseleit buffer, and the bath solution was warmed to 37° C. and bubbled with a gas mixture of 5% CO2 and 95% O2. The pH of the solution was adjusted to about 7.4. The transducer was connected to a polygraph (NIHON KODEN AP-621G), and the change of tension was recorded on a recorder (YOKOGAWA type 3066). The polygraph was graduated by 0.5 g/cm.
The effect of a smooth muscle relaxant varies with the concentration of KCl based on the difference of an action mechanism. In the following Test Example, KCl was used at a concentration different from that in Test Example 1.
A sample of the excised bladder was prepared in the same manner as in Test Example 1, and the tension of the preparation was measured. After the tension of the tissue was adjusted to be a steady state at 1 g, 15 mM KCl was applied. After the rhythmical contraction was confirmed to appear by KCl, the tissue was washed. Then, 15 mM KCl was applied again. After the rhythmical contraction took place constantly and the tissue reached the steady state, a test compound was applied by the cumulative method (half-logarithmic incremence). The contact time at each concentration was 30 minutes. The activity of the compound was expressed as the maximum relaxation rate (%) of the tension induced by the agonist.

Assay [2] concerns detrusor muscle. Put plainly: Test Example 1: relaxation of guinea pig bladder strips contracted with 50 mM KCl. Type of assay: cell-based, guinea pig (male albino Hartley). The following applies: Cavia porcellus; contraction induced by 50 mM KCl; concentration decreasing detrusor contraction by 50%.
From the text: as §1, §2, §3
After the tissue was incubated in the buffer for 15 minutes without preloading, tension was added thereto for about one hour. The preloading tension added was 1.5 g and it was relaxed to about 1 g. The tissue was washed at intervals of 15 minutes and the tension was adjusted to 1.5 g just before washing. The tension of the tissue was adjusted to be a steady state at 1 g. After this equilibrium time, 50 mM KCl (the whole content in the bath) was added, and the tissue was washed 10 minutes later. KCl was added to the tissue at intervals of 30 minutes, followed by washing 10 minutes later, and KCl was applied repeatedly until the developed tension induced by KCl becomes constant. When the tissue was confirmed to contract constantly by the application of KCl and relax to the steady state after washing, 50 mM KCl was applied again. After the tissue reached the steady state and the base line was obtained, a test compound was applied by the cumulative method (half-logarithmic incremence). The contact time at each concentration was 30 minutes. The activity of the compound was expressed as the maximum relaxation rate (%) of the tension induced by the agonist.

Assay [3] has as its system bladder. The experiment in a line: Test Example 4: micturition contraction interval in rats under partial restraint, oral. Type of assay: in vivo, rat (male SD strain). The following applies: Rattus norvegicus, 1 mg/kg oral, pre-administration = 100. From the text: As a control compound, cromakalim was used.

24 compounds from patent US5726325A, “Tricyclic compounds” (Kyowa Hakko Kogyo Co., Ltd., priority 1995, dated 1998) can be followed below.

On to `CC(O)(C(=O)Nc1ccc2c(c1)C(=O)c1ccccc1CO2)C(F)(F)F` (stereo not drawn) [Compound 3, 2-(3,3,3-Trifluoro-2-hydroxy-2-methylpropanoylamino)-6,11-dihydrodibenz[b,e]oxepin-11-one], for which the half-inhibitory concentration (IC50) was 1.8 µM in assay [1] and 2.2 µM in assay [2].
The corresponding values for `CC(O)(C(=O)Nc1cccc2c1C(=O)c1ccccc1-2)C(F)(F)F` (stereo not drawn) [Compound 4, 1-(3,3,3-Trifluoro-2-hydroxy-2-methylpropanoylamino)fluoren-9-one] are 8.4 µM and 2.6 µM.
As for `CC(O)(C(=O)Nc1ccc2c(c1)-c1ccccc1C2=O)C(F)(F)F` (stereo not drawn) [Compound 6, 3-(3,3,3-Trifluoro-2-hydroxy-2-methylpropanoylamino)fluoren-9-one], the concentration for half-maximal inhibition (IC50) in assay [1] was 11.2 µM; in assay [2], 6.1 µM.
With `CC(O)(C(=O)Nc1cc2c(cc1Cl)-c1ccccc1C2=O)C(F)(F)F` (stereo not drawn) [Compound 11, 3-Chloro-2-(3,3,3-trifluoro-2-hydroxy-2-methyl-propanoylamino)fluoren-9-one], the results for the 50% inhibitory concentration (IC50) in assay [1] and in assay [2] were 2.2 µM and 2 µM, respectively.
The corresponding values for `CC(O)(C(=O)Nc1cc2c(cc1Br)-c1ccccc1C2=O)C(F)(F)F` (stereo not drawn) [Compound 12, 3-Bromo-2-(3,3,3-trifluoro-2-hydroxy-2-methylpropanoylamino)fluoren-9-one] are 3.2 µM and 3.8 µM.
The corresponding values for `CC(O)(C(=O)Nc1ccc2c(c1)C(=O)c1cc(Br)ccc1-2)C(F)(F)F` (stereo not drawn) [Compound 13, 7-Bromo-2-(3,3,3-trifluoro-2-hydroxy-2-methylpropanoylamino)fluoren-9-one] are 48 µM and 3.5 µM.
In the case of `CC(O)(C(=O)Nc1cccc2c1-c1ccccc1C2=O)C(F)(F)F` (stereo not drawn) [Compound 14, 4-(3,3,3-Trifluoro-2-hydroxy-2-methylpropanoylamino)fluoren-9-one], the half-maximal inhibitory concentration (IC50) in assay [1] is 2.3 µM; in assay [2], 5.7 µM.
Turning to `CC(O)(C(=O)Nc1ccc2c(c1)OCc1sccc1C2=O)C(F)(F)F` (stereo not drawn) [Compound 18, 7-(3,3,3-Trifluoro-2-hydroxy-2-methylpropanoylamino)-4,10-dihydrothieno[2,3-c][1]benzoxepin-4-one], the values for the concentration for half-maximal inhibition (IC50) in assay [1] and in assay [2] were 2.1 µM and over 10 µM, respectively.
The corresponding values for `CC(O)(C(=O)Nc1ccc2c(c1)OCc1c(F)cccc1C2=O)C(F)(F)F` (stereo not drawn) [Compound 21, 7-Fluoro-3-(3,3,3-trifluoro-2-hydroxy-2-methylpropanoylamino)-6,11-dihydrodibenz[b,e]oxepin-11-one] are over 10 µM and 4.3 µM.
The corresponding values for `Cc1ccc(NC(=O)C(C)(O)C(F)(F)F)c2c1OCc1ccccc1C2=O` (stereo not drawn) [Compound 22] are over 10 µM and 4.2 µM.
The corresponding values for `COc1ccc(NC(=O)C(C)(O)C(F)(F)F)c2c1OCc1ccccc1C2=O` (stereo not drawn) [Compound 23] are 7.8 µM and over 10 µM.
For the compound `Cc1cc2c(cc1NC(=O)C(C)(O)C(F)(F)F)OCc1ccccc1C2=O` (stereo not drawn) [Compound 25, 2-Methyl-3-(3,3,3-trifluoro-2-hydroxy-2-methylpropanoylamino)-6,11-dihydrodibenz[b,e]oxepin-11-one], the 50% inhibitory concentration (IC50) in assay [1] was over 10 µM; in assay [2] it was 2.2 µM.
For the compound `Cc1ccc(NC(=O)C(C)(O)C(F)(F)F)c2c1OCc1ccsc1C2=O` (stereo not drawn) [Compound 26, 6-Methyl-9-(3,3,3-trifluoro-2-hydroxy-2-methylpropanoylamino)-4,10-dihydrothieno[3,2-c][1]-benzoxepin-10-one], the IC50 in assay [1] was over 10 µM; in assay [2] it was 7.1 µM.
With `COc1ccc(NC(=O)C(C)(O)C(F)(F)F)c2c1OCc1ccsc1C2=O` (stereo not drawn) [Compound 27, 6-Methoxy-9-(3,3,3-trifluoro-2-hydroxy-2-methylpropanoylamino)-4,10-dihydrothieno[3,2-c][1]-benzoxepin-10-one], the values for the concentration for half-maximal inhibition (IC50) in assay [1] and in assay [2] were over 10 µM and 4.8 µM, respectively.
Turning to `C[C@@](O)(C(=O)Nc1cccc2c1C(=O)c1sccc1CO2)C(F)(F)F` [Compound 34, (R)-9-(3,3,3-Trifluoro-2-hydroxy-2-methylpropanoylamino)-4,10-dihydrothieno[3,2-c][1]benzoxepin-10-one], the IC50 in assay [1] came to 2.2 µM; in assay [2] it was 1.6 µM.
The corresponding values for `C[C@@](O)(C(=O)Nc1cccc2c1C(=O)c1ccoc1CO2)C(F)(F)F` [Compound 36, (R)-5-(3,3,3-Trifluoro-2-hydroxy-2-methylpropanoylamino)-4,10-dihydrofuro[2,3-c][1]benzoxepin-4-one] are 1.3 µM and 8.3 µM.
For the compound `C[C@@](O)(C(=O)Nc1ccc2c(c1)OCc1occc1C2=O)C(F)(F)F` [Compound 38, (R)-7-(3,3,3-Trifluoro-2-hydroxy-2-methylpropanoylamino)-4,10-dihydrofuro[2,3-c][1]benzoxepin-4-one], the figures for the half-maximal inhibitory concentration (IC50) in assay [1] and in assay [2] were 0.9 µM and 13.4 µM, respectively.
The corresponding values for `C[C@](O)(C(=O)Nc1ccc2c(c1)C(=O)c1sccc1CO2)C(F)(F)F` [Compound 39, (S)-8-(3,3,3-Trifluoro-2-hydroxy-2-methylpropanoylamino)-4,10-dihydrothieno[3,2-c][1]benzoxepin-10-one] are 2.6 µM and over 10 µM.
`CC(O)(C(=O)Nc1cccc2c1C(=O)c1ccccc1CS2)C(F)(F)F` (stereo not drawn) [Compound 40, 1-(3,3,3-Trifluoro-2-hydroxy-2-methylpropanoylamino)-6,11-dihydrodibenzo[b,e]thiepin-11-one]: the values for the IC50 in assay [1] and in assay [2] were 3.5 µM and 1.5 µM, respectively.
As to `CC(O)(C(=O)Nc1ccc2c(c1)SCc1ccccc1C2=O)C(F)(F)F` (stereo not drawn) [Compound 41, 3-(3,3,3-Trifluoro-2-hydroxy-2-methylpropanoylamino)-6,11-dihydrodibenzo[b,e]thiepin-11-one], the IC50 in assay [1] came to 1.6 µM; in assay [2], 2.1 µM.
`CC(O)(C(=O)Nc1ccc2c(c1)SCc1sccc1C2=O)C(F)(F)F` (stereo not drawn) [Compound 47, 7-(3,3,3-Trifluoro-2-hydroxy-2-methylpropanoylamino)-4,10-dihydrothieno[2,3-c][1]benzothiepin-4-one] yielded an IC50 in assay [1] of 6.1 µM.
Take `CC(O)(C(=O)Nc1cccc2c1C(=O)c1ccsc1C[S+]2[O-])C(F)(F)F` (stereo not drawn) [Compound 50, 9-Oxo-5-(3,3,3-trifluoro-2-hydroxy-2-methylpropanoylamino)-4,10-dihydrothieno[2,3-c][1]benzothiepin-4-one]: it took 6.1 µM to reach half-maximal inhibition in assay [1] (IC50).
`CC(O)(C(=O)Nc1ccc2c(c1)[S+]([O-])Cc1sccc1C2=O)C(F)(F)F` (stereo not drawn) [Compound 51, 9-Oxo-7-(3,3,3-trifluoro-2-hydroxy-2-methylpropanoylamino)-4,10-dihydrothieno[2,3-c][1]benzothiepin-4-one] had a half-maximal inhibitory concentration (IC50) in assay [1] of 5.7 µM.
With `CC1(C)Oc2ccc(C#N)cc2C(N2CCCC2=O)C1O` (stereo not drawn) [Cromakalim, cromakalim, reference compound], the response vs control in vivo at 1 mg/kg in assay [3] (1 hr) came out at 128%; in assay [3] (2 hr) it was 133%; in assay [3] (3 hr), 142%; in assay [3] (4 hr) it was 133%; in assay [3] (5 hr), 133%.
